According to patent US20240041840A1 (Areteia Therapeutics, Inc., priority 2020, published 2024):
Read-outs that look alike come from different tables or passages of the source.

What was measured:
[1] = tested on: subjects with eosinophilic chronic rhinosinusitis with nasal polyps; settings: 150 mg twice daily
Source text: Current asthma medications work in a variety of ways. […] The co-primary endpoints were change in AEC and change in total polyp score (TPS) from baseline to Month 6, with additional clinical and histologic endpoints assessed.

[2] = tested on: subjects with eosinophilic asthma; settings: for Post-Bronchodilator FEV1 Reversibility % change, mean / Post-Bronchodilator FEV1 Reversibility % change, median / Post-Bronchodilator FEV1 Reversibility change, mean / Post-Bronchodilator FEV1 Reversibility change, median / Post-Bronchodilator FEV1 Reversibility observed, mean / Post-Bronchodilator FEV1 Reversibility observed, median: Week 12
Method: Pulmonary function is measured by performing a spirometry, which measures forced expiratory volume in is (FEV1), the volume of air moved in the first second of exhalation, this is a well-accepted measure of asthma. Forced vital capacity (FVC) is the total volume of air exhaled during the entire forced expiratory volume (FEV) test. The FEV1/FVC ratio is a calculated measure that may provide a more specific measure of bronchoconstriction, independent of processes such as air trapping. Pulmonary function testing can be tested pre-bronchodilator (after waiting a sufficient time so that all bronchodilator medications have cleared) or post-bronchodilator, typically 15-30 minutes after inhaling a short-acting bronchodilator, such as albuterol. Bronchodilator reversibility (BDR) is calculated and assessed by analyzing FEV1 pre- and post-bronchodilator, and calculating the change both as absolute (ml) and percentage change.
Table 10 provides the data for analyzing bronchodilator reversibility, the % improvement in FEV1 pre/post albuterol bronchodilator (same day). The study entry criteria required ≥12% and ≥200 mL at screening. These values are accepted in the diagnosis of asthma.

[3] = tested on: eosinophil peroxidase (EPX); settings: worded as embodiment
Method: Eosinophil peroxidase (EPX) is a granule protein uniquely secreted by eosinophils which can be detected and quantified using an enzyme-linked immunosorbent assay (ELISA). EPX is measured from mucosal swabs or sputum samples. […] In embodiments, normal nasal EPX levels are less than about 10 ng/mg of total protein, whereas moderate to severe asthma of the eosinophilic phenotype may be diagnosed as having nasal EPX levels greater than about 10 ng/mg of total protein. […] Normal induced sputum EPX levels may be less than about 200 ng/mL/g recovered sputum, whereas moderate to severe asthma of the eosinophilic phenotype is diagnosed as having induced sputum EPX levels greater than about 200 ng/mL/g recovered sputum.
(§1) Evaluation of Efficacy: Blood eosinophil count, changes in pulmonary function (FEV1), Asthma Control Questionnaire (ACQ-6), Asthma Control Questionnaire (ACQ-7), Asthma Quality of Life Questionnaire (AQLQ), exhaled nitric oxide, pharyngeal and nasal eosinophil peroxidase were collected periodically during the study.

[4] = tested on: subjects with eosinophilic asthma; settings: for ACQ-6 Change from Baseline LSM / ACQ-6 Difference vs Placebo LSM (95% CI): 12 weeks
Source text: The ACQ cutoff for well-controlled asthma is a score of about 0.75, and the ACQ cutoff for uncontrolled asthma is a score of about ≥1.5. An ACQ score change of ≥0.5 is considered clinically significant.
as §1
Juniper Asthma Control Six Point Questionnaire (ACQ-6)—Baseline and visits 5, 8, 11 and 14. The ACQ-6 will be used to assess improvements in asthma symptom control (6). The ACQ-6 was originally validated in participants with asthma aged 17 to 90 years (2, 3, and is one of several asthma control measures recommended by GINA Guidelines). The ACQ-6 consists of 6 items: 5 items on symptom assessment, 1 item on rescue bronchodilator use. The ACQ-6 has been fully validated, including a minimal important difference (MID) or smallest change that can be considered clinically important (0.5). The ACQ-6 will be self-administered at the clinic (questions 1-6 only) and it only takes a few minutes to complete. Participants are asked how they have been feeling during the past week and to score each item on a […] response scale, where 0 indicates ‘totally controlled’ and 6 indicates ‘severely uncontrolled.’ The total score is calculated as the mean of all questions. The questionnaire should always be completed before any other assessments.

[5] = tested on: blood eosinophils; settings: 150 mg twice daily, after 6 months, open label, 16 subjects with eosinophilic chronic rhinosinusitis with nasal polyps
[6] = 12 subjects with a history of asthma

## CCCN[C@@H]1CCc2nc(N)sc2C1 [dexpramipexole, (6R)-2-amino-4,5,6,7-tetrahydro-6-(propylamino) benzothiazole]
[1]; 3 months (Baseline 5.29)
  Total polyp score (TPS), mean: 5.50
[1]; 6 month trial
  Other indices of chronic rhinosinusitis disease activity (SNOT-22, sinus CT score, Sniffin Sticks olfaction test): not improved
[1]; 6 months (Baseline 5.29)
  Total polyp score (TPS), mean: 5.42
[1]; [6]
  ACQ6 values: unchanged
  FEV1 values: unchanged
[2]; 75 mg/day
  Post-Bronchodilator FEV1 Reversibility % change, mean: −58.7%
  Post-Bronchodilator FEV1 Reversibility % change, median: −49.9%
  Post-Bronchodilator FEV1 Reversibility change, mean: -112 mL
  Post-Bronchodilator FEV1 Reversibility change, median: -55.0 mL
  Post-Bronchodilator FEV1 Reversibility observed, mean: 264 mL
  Post-Bronchodilator FEV1 Reversibility observed, median: 235 mL
[2]; 150 mg/day
  Post-Bronchodilator FEV1 Reversibility % change, mean: −39.8%
  Post-Bronchodilator FEV1 Reversibility % change, median: −9.68%
  Post-Bronchodilator FEV1 Reversibility change, mean: -72.3 mL
  Post-Bronchodilator FEV1 Reversibility change, median: 0 mL
  Post-Bronchodilator FEV1 Reversibility observed, mean: 279 mL
  Post-Bronchodilator FEV1 Reversibility observed, median: 235 mL
[2]; 300 mg/day
  Post-Bronchodilator FEV1 Reversibility % change, mean: −19.6%
  Post-Bronchodilator FEV1 Reversibility % change, median: −19.0%
  Post-Bronchodilator FEV1 Reversibility change, mean: -109 mL
  Post-Bronchodilator FEV1 Reversibility change, median: -50.0 mL
  Post-Bronchodilator FEV1 Reversibility observed, mean: 336 mL
  Post-Bronchodilator FEV1 Reversibility observed, median: 290 mL
[2]; Week 12, 3 DEX arms vs. placebo
  Bronchodilator reversibility: preserved
[3]; daily dose of about 75 mg
  Reduction of the level of nasal EPX: about 36%
[3]; daily dose of about 150 mg
  Reduction of the level of nasal EPX: about 83%
[3]; daily dose of about 300 mg
  Reduction of the level of nasal EPX: about 89%
[4]; 75 mg/day
  ACQ-6 Change from Baseline LSM: −0.419
  ACQ-6 Difference vs Placebo LSM (95% CI): −0.0276 (−0.560, 0.505)
[4]; 150 mg/day
  ACQ-6 Change from Baseline LSM: −0.437
  ACQ-6 Difference vs Placebo LSM (95% CI): −0.0457 (−0.575, 0.484)
[4]; 300 mg/day
  ACQ-6 Change from Baseline LSM: −0.655
  ACQ-6 Difference vs Placebo LSM (95% CI): −0.264 (−0.772, 0.245)
[4]; across several dose groups, 12 weeks (Table 13)
  ACQ-6 scores: improved
[5]
  Lowering of the AEC: 94%
